According to patent US4052262A (priority 1969, dated 1977):
Like-named read-outs stand apart in the source and are kept apart here. Blank lines part the entries; values can stand above or below the compound they belong to.

Biological target: T1, alkaline protease (crystalline enzyme of the present invention) from Bacillus sp. No. 221 (ATCC 21522), Bacillus sp. No. 0-4 (ATCC 21536) or Bacillus sp. No. Y- (Shouchella clausii, UniProt P41362)
T1 construct: made in house; host or cells: culture of the wild Bacillus strain (No. 221, No. 0-4 or No. Y-76); native enzyme isolated from the culture
T1 sequence (P41362 112-380): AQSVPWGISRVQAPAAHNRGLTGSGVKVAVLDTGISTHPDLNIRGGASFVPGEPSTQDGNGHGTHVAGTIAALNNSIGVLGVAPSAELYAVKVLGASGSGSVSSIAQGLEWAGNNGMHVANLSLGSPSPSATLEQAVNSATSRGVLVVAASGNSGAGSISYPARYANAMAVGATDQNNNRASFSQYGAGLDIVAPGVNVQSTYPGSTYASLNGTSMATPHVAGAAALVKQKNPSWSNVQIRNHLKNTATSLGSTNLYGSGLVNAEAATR
Assay type: biochemical, No. Y-76
Description: One milliliter of the enzyme solution suitably diluted with 10^-2 M CaCl2 was mixed with 5 ml of 0.6% casein solution (pH 11.5, 2 × 10^-2 M Na2 HPO4 - NaOH buffer) at 30° C. After 10 minutes' incubation, 5 ml of trichloroacetic acid solution (0.11M trichloroacetic acid, 0.22M sodium acetate, and 0.33M acetic acid) was added to the reaction mixture and the mixture was further incubated at 30° C for 30 minutes. The mixture was filtered and the absorbance of the filtrate was measured at 275 mμ. The readings were corrected by substracting the value of the blank in which the enxyme solution was mixed with trichloroacetic acid solution before the casein solution was added.
One unit of protease activity is defined as the amount of enzyme required to produce the digest which is not precipitated by trichloroacetic acid and which gives absorbance value equivalent to 1 γ of tyrosine per minute at 30° C. The relative activity is the activity at any pH divided by the maximum activity and multiplied by 100. FIG. 4 of this application gives the data of the absolute activity (arbitrary scale) on the ordinate and the pH's on the axis of the abscissa.

SMILES: O=C(O)c1cc[c]([Hg][Cl])cc1 [PCMB, p-chloromercuribenzoate]
Residual activity (additive concentration 10^-3 M): 100%

SMILES: O=C(O)CN(CCN(CC(=O)O)CC(=O)O)CC(=O)O [EDTA, ethylenediaminetetraacetic acid]
Residual activity: 100%

Residual activity (additive concentration 6 M): 0%
SMILES: NC(N)=O [Urea]
